“Also recorded” adds a separate entry of the source. Where two headings read alike, the source gives them in different places.
Test: Single dose PK in healthy subjects (Cohorts 1, 2, S1 and S2), plasma
Assay type: in vivo, human
Procedure: This study investigates (i) the safety and tolerability of Compound A (methyl (2R,3S)-3-((methylsulfonyl)amino)-2-(((cis-4-phenylcyclohexyl)oxy)methyl)piperidine-1-carboxylate) when a single dose given as a 9 hour continuous IV infusion is administered to healthy adults, healthy elderly subjects and patients with narcolepsy type 1 (NT1); (ii) the pharmacokinetics of Compound A when a single dose given as a 9 hour continuous IV infusion is administered to healthy adults, healthy elderly subjects and patients with narcolepsy type 1; and (iii) the pharmacodynamics (PD) effects of Compound A, primarily by evaluation of the sleep latency on MWT when a single dose given as a 9 hour continuous IV infusion is administered to patients with narcolepsy type 1.
Pharmacokinetics: Concentrations of Compound A in plasma, and CSF, and pharmacokinetics parameters.
On average, the time to reach the plateau appeared to be approximately 3 to 4 hours after the start of infusion. […] After switching off the IV infusion, Compound A plasma concentrations declined rapidly and in a biphasic manner with a mean terminal disposition phase t1/2z ranging approximately from 3.4 to 5.1 hours across all doses. […] Table 5 provides a summary of plasma concentrations of Compound A after a single IV infusion in healthy subjects. Table 6 provides a summary of pharmacokinetic parameters of Compound A after a single IV infusion in healthy subjects.

[1] = 56 mg, 2 hr After End of Infusion
[2] = 112 mg single IV infusion, healthy subjects
[3] = 112 mg, 0.17 hr After End of Infusion
[4] = 134.4 mg single IV infusion, healthy subjects
[5] = 134.4 mg, 0.17 hr After End of Infusion
[6] = 180 mg single IV infusion, healthy subjects
[7] = 240 mg single IV infusion, healthy subjects
[8] = human, plasma, intravenous, 7 mg, read-out: Plasma concentration, Mean
[9] = human, plasma, intravenous, 7 mg, read-out: Plasma concentration, Median
[10] = human, plasma, intravenous, 7 mg, read-out: Plasma concentration, Minimum
[11] = human, plasma, intravenous, 7 mg, read-out: Plasma concentration, Q1

COC(=O)N1CCC[C@H](NS(C)(=O)=O)[C@@H]1CO[C@H]1CC[C@@H](c2ccccc2)CC1 [Compound A, methyl (2R,3S)-3-((methylsulfonyl)amino)-2-(((cis-4-phenylcyclohexyl)oxy)methyl)piperidine-1-carboxylate]
Plasma concentration, Mean [1]: 21.70 ng/mL | Plasma concentration, Minimum [1]: 15.4 ng/mL | Plasma concentration, Q1 [1]: 15.60 ng/mL | AUCinf D Mean [2]: 18.87 ng·h/mL/mg | AUCinf D Median [2]: 19.25 ng·h/mL/mg | Cmax D Mean [2]: 2.130 ng/mL/mg | Cmax D Median [2]: 2.230 ng/mL/mg | t½z Mean [2]: 3.788 h | t½z Median [2]: 3.370 h | Plasma concentration, Maximum [3]: 138 ng/mL | Plasma concentration, Mean [3]: 126.2 ng/mL | Plasma concentration, Median [3]: 133.0 ng/mL | Plasma concentration, Minimum [3]: 106 ng/mL | Plasma concentration, Q1 [3]: 110.0 ng/mL | Plasma concentration, Q3 [3]: 137.0 ng/mL | Plasma concentration, Maximum (112 mg, Predose): 0.00 ng/mL | Plasma concentration, Median (112 mg, Predose): 0.000 ng/mL | Plasma concentration, Minimum (112 mg, Predose): 0.00 ng/mL | Plasma concentration, Q1 (112 mg, Predose): 0.000 ng/mL | Plasma concentration, Q3 (112 mg, Predose): 0.000 ng/mL | AUCinf D Mean [4]: 20.23 ng·h/mL/mg | AUCinf D Median [4]: 19.95 ng·h/mL/mg | Cmax D Mean [4]: 2.293 ng/mL/mg | Cmax D Median [4]: 2.340 ng/mL/mg | t½z Mean [4]: 3.943 h | t½z Median [4]: 3.760 h | Plasma concentration, Maximum [5]: 255 ng/mL | Plasma concentration, Mean [5]: 181.7 ng/mL | Plasma concentration, Median [5]: 167.5 ng/mL | Plasma concentration, Minimum [5]: 145 ng/mL | Plasma concentration, Q1 [5]: 148.0 ng/mL | Plasma concentration, Q3 [5]: 207.0 ng/mL | Plasma concentration, Maximum (134.4 mg, Predose): 0.00 ng/mL | Plasma concentration, Mean (134.4 mg, Predose): 0.000 ng/mL | Plasma concentration, Median (134.4 mg, Predose): 0.000 ng/mL | Plasma concentration, Minimum (134.4 mg, Predose): 0.00 ng/mL | Plasma concentration, Q1 (134.4 mg, Predose): 0.000 ng/mL | Plasma concentration, Q3 (134.4 mg, Predose): 0.000 ng/mL | AUCinf D Mean [6]: 16.73 ng·h/mL/mg | AUCinf D Median [6]: 16.90 ng·h/mL/mg | Cmax D Mean [6]: 1.918 ng/mL/mg | Cmax D Median [6]: 1.990 ng/mL/mg | t½z Mean [6]: 3.363 h | t½z Median [6]: 3.225 h | AUCinf D Mean [7]: 19.28 ng·h/mL/mg | AUCinf D Median [7]: 18.45 ng·h/mL/mg | Cmax D Mean [7]: 2.133 ng/mL/mg | Cmax D Median [7]: 2.010 ng/mL/mg | Vss Median [7]: 99.25 L | t½z Mean [7]: 4.033 h | t½z Median [7]: 4.230 h | dose proportionality of mean plasma systemic exposure (doses of 7 to 240 mg, healthy adults): increased approximately dose proportionally; also recorded: exhibits linear pharmacokinetics | concentration at 0.33 h after end of infusion [8]: 7.34 ng/mL | concentration at 0.33 h after end of infusion [9]: 7.16 ng/mL | concentration at 0.33 h after end of infusion [10]: 6.28 ng/mL | concentration at 0.33 h after end of infusion [11]: 7.12 ng/mL | concentration at 0.33 h after end of infusion (human, plasma, intravenous, 7 mg, read-out: Plasma concentration, Q3): 7.26 ng/mL | concentration at 0.5 h after end of infusion [8]: 6.73 ng/mL | concentration at 0.5 h after end of infusion [9]: 6.46 ng/mL | concentration at 0.5 h after end of infusion [10]: 6.1 ng/mL | concentration at 0.5 h after end of infusion [11]: 6.26 ng/mL | concentration at 0.5 h (human, plasma, intravenous, 7 mg, 0.5 hr, read-out: Plasma concentration, Maximum): 10.5 ng/mL | concentration at 0.5 h (human, plasma, intravenous, 7 mg, 0.5 hr, read-out: Plasma concentration, Mean): 9.15 ng/mL | concentration at 0.5 h (human, plasma, intravenous, 7 mg, 0.5 hr, read-out: Plasma concentration, Median): 9.54 ng/mL | concentration at 0.5 h (human, plasma, intravenous, 7 mg, 0.5 hr, read-out: Plasma concentration, Minimum): 6.99 ng/mL | concentration at 0.5 hr (human, plasma, intravenous, 7 mg, 0.5 hr, read-out: Plasma concentration, Q1): 7.83 ng/mL | concentration at 0.5 h (human, plasma, intravenous, 7 mg, 0.5 hr, read-out: Plasma concentration, Q3): 10.5 ng/mL | concentration at 0.75 h after end of infusion [8]: 5.55 ng/mL | concentration at 0.75 h after end of infusion [9]: 5.38 ng/mL | concentration at 0.75 h after end of infusion [10]: 5.27 ng/mL | concentration at 0.75 h after end of infusion [11]: 5.35 ng/mL | concentration at 1 h after end of infusion [8]: 4.91 ng/mL | concentration at 1 h after end of infusion [9]: 4.83 ng/mL | concentration at 1 h after end of infusion [10]: 4.34 ng/mL | concentration at 1 h after end of infusion [11]: 4.82 ng/mL | concentration at 1 h (human, plasma, intravenous, 7 mg, 1 hr, read-out: Plasma concentration, Maximum): 15.1 ng/mL | concentration at 1 h (human, plasma, intravenous, 7 mg, 1 hr, read-out: Plasma concentration, Mean): 11.7 ng/mL | concentration at 1 h (human, plasma, intravenous, 7 mg, 1 hr, read-out: Plasma concentration, Median): 11.9 ng/mL | concentration at 1 h (human, plasma, intravenous, 7 mg, 1 hr, read-out: Plasma concentration, Minimum): 8.68 ng/mL | concentration at 1 hr (human, plasma, intravenous, 7 mg, 1 hr, read-out: Plasma concentration, Q1): 9.45 ng/mL | concentration at 1 h (human, plasma, intravenous, 7 mg, 1 hr, read-out: Plasma concentration, Q3): 13.2 ng/mL | concentration at 1.5 h after end of infusion [8]: 4.25 ng/mL | concentration at 1.5 h after end of infusion [9]: 4.5 ng/mL | concentration at 1.5 h after end of infusion [10]: 3.27 ng/mL | concentration at 1.5 h after end of infusion [11]: 4.15 ng/mL | concentration at 1.5 h (human, plasma, intravenous, 7 mg, 1.5 hr, read-out: Plasma concentration, Maximum): 17.6 ng/mL | concentration at 1.5 h (human, plasma, intravenous, 7 mg, 1.5 hr, read-out: Plasma concentration, Mean): 13.1 ng/mL | concentration at 1.5 h (human, plasma, intravenous, 7 mg, 1.5 hr, read-out: Plasma concentration, Median): 13 ng/mL | concentration at 1.5 h (human, plasma, intravenous, 7 mg, 1.5 hr, read-out: Plasma concentration, Minimum): 8.96 ng/mL | concentration at 1.5 hr (human, plasma, intravenous, 7 mg, 1.5 hr, read-out: Plasma concentration, Q1): 12 ng/mL | concentration at 1.5 h (human, plasma, intravenous, 7 mg, 1.5 hr, read-out: Plasma concentration, Q3): 14 ng/mL | concentration at 2 h (human, plasma, intravenous, 7 mg, 2 hr, read-out: Plasma concentration, Maximum): 18.5 ng/mL | concentration at 2 h (human, plasma, intravenous, 7 mg, 2 hr, read-out: Plasma concentration, Mean): 14.8 ng/mL | concentration at 2 h (human, plasma, intravenous, 7 mg, 2 hr, read-out: Plasma concentration, Median): 14.9 ng/mL | concentration at 2 h (human, plasma, intravenous, 7 mg, 2 hr, read-out: Plasma concentration, Minimum): 10.9 ng/mL | concentration at 2 hr (human, plasma, intravenous, 7 mg, 2 hr, read-out: Plasma concentration, Q1): 12.8 ng/mL | concentration at 2 h (human, plasma, intravenous, 7 mg, 2 hr, read-out: Plasma concentration, Q3): 16.5 ng/mL | concentration at 3 h (human, plasma, intravenous, 7 mg, read-out: Plasma concentration, Maximum): 20.2 ng/mL | concentration at 3 h [8]: 16.5 ng/mL | concentration at 3 h [9]: 15.8 ng/mL | concentration at 3 h [10]: 13.2 ng/mL

Source: patent US20220339143A1, “TAK-925 FOR USE IN TREATING NARCOLEPSY” (Takeda Pharmaceutical Company Limited, priority 2019, published 2022)
